Experimental data reported in ChEMBL document CHEMBL3217664, “Synthesis and biological evaluation of 4-chlorocolchicine derivatives as potent anticancer agents with broad effective dosage ranges” (Medchemcomm, 2012).

Key:
HT-29 = experiment: Cytotoxicity against human HT-29 cells after 96 hrs by microplate reader analysis; assay type: functional, cell-based; settings: HT-29, 96 h
HCT-116 [1] = experiment: Cytotoxicity against human HCT116 cells after 96 hrs by microplate reader analysis; assay type: functional, cell-based; settings: HCT-116, 96 h
HCT-116 [2] = experiment: Antitumor activity against human HCT116 cells xenografted in BALB/c mouse assessed as tumor growth inhibition at 5 mg/kg/day, iv administered on day 1, 5 and 9 relative to control; assay type: functional; settings: HCT-116, 24 h, read-out: TGI
A549 = experiment: Cytotoxicity against human A549 cells after 96 hrs by microplate reader analysis; assay type: functional, cell-based; settings: A549, 96 h
HCT-116 [3] = experiment: Antitumor activity against human HCT116 cells xenografted in BALB/c mouse assessed as tumor growth inhibition at 2.5 mg/kg/day, iv administered on day 1, 5 and 9 relative to control; assay type: functional; settings: HCT-116, 24 h, read-out: TGI
Liver = experiment: Metabolic stability in BALB/c mouse liver microsomes at 1 umol/l by LC-MS/MS analysis; assay type: ADME; settings: 1 µM
Mus musculus [4] = experiment: Toxicity in BALB/c mouse assessed as mortality at 2.5 mg/kg/day, iv administered on day 1, 5 and 9; assay type: organism-based; set-up: route intravenous; settings: in vivo
Mus musculus [5] = experiment: Toxicity in BALB/c mouse assessed as mortality at 5 mg/kg/day, iv administered on day 1, 5 and 9; assay type: organism-based; set-up: route intravenous; settings: in vivo
Mus musculus [6] = experiment: Toxicity in BALB/c mouse assessed as mortality at 20 mg/kg/day, iv administered on day 1, 5 and 9; assay type: organism-based; set-up: route intravenous; settings: in vivo
HCT-116 [7] = experiment: Antitumor activity against human HCT116 cells xenografted in BALB/c mouse assessed as tumor growth inhibition at 40 mg/kg/day, iv administered on day 1, 5 and 9 relative to control; assay type: functional; settings: HCT-116, 24 h, read-out: TGI
Mus musculus [8] = experiment: Toxicity in BALB/c mouse assessed as mortality at 40 mg/kg/day, iv administered on day 1, 5 and 9; assay type: organism-based; set-up: route intravenous; settings: in vivo
HCT-116 [9] = experiment: Antitumor activity against human HCT116 cells xenografted in BALB/c mouse assessed as tumor growth inhibition at 20 mg/kg/day, iv administered on day 1, 5 and 9 relative to control; assay type: functional; settings: HCT-116, 24 h, read-out: TGI
Mus musculus [10] = experiment: Toxicity in BALB/c mouse assessed as mortality at 50 mg/kg/day, iv administered on day 1, 5 and 9; assay type: organism-based; set-up: route intravenous; settings: in vivo
HCT-116 [11] = experiment: Antitumor activity against human HCT116 cells xenografted in BALB/c mouse assessed as tumor growth inhibition at 100 mg/kg/day, iv administered on day 1, 5 and 9 relative to control; assay type: functional; settings: HCT-116, 24 h, read-out: TGI
Mus musculus [12] = experiment: Toxicity in BALB/c mouse assessed as mortality at 100 mg/kg/day, iv administered on day 1, 5 and 9; assay type: organism-based; set-up: route intravenous; settings: in vivo
HCT-116 [13] = experiment: Antitumor activity against human HCT116 cells xenografted in BALB/c mouse assessed as tumor growth inhibition at 50 mg/kg/day, iv administered on day 1, 5 and 9 relative to control; assay type: functional; settings: HCT-116, 24 h, read-out: TGI

With `COc1c(Cl)c2c(c(OC)c1OC)-c1ccc(OC)c(=O)cc1[C@@H](NC(=O)c1cccc(N(C)C)c1)CC2` the IC50 (HT-29) was 1.4 nM, the IC50 (HCT-116 [1]) was 1.6 nM and the inhibition in vivo at 5 mg/kg/day (HCT-116 [2]) was 25.3%. For the same molecule, the IC50 (A549) was 6.4 nM, the inhibition in vivo at 2.5 mg/kg/day (HCT-116 [3]) was 31.4% and the Stability (Liver) was 122 µL/min/mg. For the same molecule, the Activity (Mus musculus [4]) was “Non-toxic” and the Activity (Mus musculus [5]) was “Non-toxic”.

For `COc1c(Cl)c2c(c(OC)c1OC)-c1ccc(OC)c(=O)cc1[C@@H](NC(=O)CO)CC2`, the IC50 (HT-29) was 8 nM, the IC50 (HCT-116 [1]) was 8.2 nM and the Activity (Mus musculus [6]) was “Non-toxic”. The IC50 (A549) was 16.3 nM, the inhibition in vivo at 40 mg/kg/day (HCT-116 [7]) was 66.7% and the Stability (Liver) was 1 µL/min/mg. For the same molecule, the Activity (Mus musculus [8]) was “Non-toxic” and the inhibition in vivo at 20 mg/kg/day (HCT-116 [9]) was 43.6%.

In the case of `COc1c(Cl)c2c(c(OC)c1OC)-c1ccc(OC)c(=O)cc1[C@@H](NC(=O)C(C)(C)O)CC2`, the IC50 (HT-29) is reported as 7.8 nM, the Activity (Mus musculus [10]) is reported as “Non-toxic” and the IC50 (HCT-116 [1]) is reported as 8.1 nM. The inhibition in vivo at 100 mg/kg/day (HCT-116 [11]) was 67.3%, the IC50 (A549) was 19.4 nM and the Stability (Liver) was 5 µL/min/mg. The Activity (Mus musculus [12]) was “Non-toxic” and the inhibition in vivo at 50 mg/kg/day (HCT-116 [13]) was 58.5%.
